Test results reported in US7445765B2, “Radiopharmaceutical for diagnostic imaging containing a technetium-99m nitride heterocomplex” (Nihon Medi-Physics Co., Ltd., priority 2000, dated 2008).

Test: Biodistribution of the 99mTc(N) heterocomplexes in rats (organ uptake, heart accumulation, heart/lung and heart/liver ratios)
Type: in vivo, female Sprague-Dawley rats
Description: The biodistribution was measured by using female Sprague-Dawley rats (SD rats) weighing 200 g to 250 g. Each of the ^99mTc(N) heterocomplexes purified in the manner described above was diluted with phosphate buffer (0.1 M, pH=7.4) to obtain a final solution having an ethanol content of 10%. After the SD rats were anesthetized with an intramuscular injection of a mixture of ketamine (80 mg/kg) and xilazine (19 mg/kg), the jugular vein of each rat was surgically exposed and 100 μL (300 to 370 kBq) of the solution containing each ^99mTc(N) heterocomplexes prepared in the manner described above was injected in the jugular vein. The rats (n=3) were sacrificed by cervical dislocation at different times post injection. The blood was withdrawn from the heart through a syringe and counted. It was assumed that the whole blood content was 6.5% of the total body weight. The organs were excised from the rats, washed with physiological saline, weighed, and counted in a NaI well counter.
For comparison, Tables 19 and 20 show the results, obtained in the same manner as above, of measuring the biodistribution of (^99mTc) (MIBI) and (^99mTc) (Tf) which have been used as pharmaceuticals for diagnostic imaging for blood flow in myocardium.
Tables 21 to 23 show data showing the variations with time of heart accumulation, heart/lung ratios and heart/liver ratios for the ^99mTc(N) heterocomplexes of the present invention.

Biodistribution in rats: Adrenal glands (2 min post injection): 2.24 % dose/g | Biodistribution in rats: Blood (2 min post injection): 0.14 % dose/g | Biodistribution in rats: Brain (2 min post injection): 0.02 % dose/g | Biodistribution in rats: Heart (2 min post injection): 2.33 % dose/g | Biodistribution in rats: Intestine (2 min post injection): 3.68 % dose/g | Biodistribution in rats: Kidneys (2 min post injection): 7.19 % dose/g | Biodistribution in rats: Liver (2 min post injection): 2.79 % dose/g | Biodistribution in rats: Lungs (2 min post injection): 0.74 % dose/g | Biodistribution in rats: Muscle (2 min post injection): 0.16 % dose/g | Biodistribution in rats: Spleen (2 min post injection): 1.11 % dose/g | Biodistribution in rats: Submax. glands (2 min post injection): 0.95 % dose/g | Biodistribution in rats: Adrenal glands (10 min (Table 16)): 2.22 % dose/g | Biodistribution in rats: Blood (10 min (Table 16)): 0.93 % dose/g | Biodistribution in rats: Brain (10 min (Table 16)): 0.10 % dose/g | Biodistribution in rats: Heart (10 min (Table 16)): 3.35 % dose/g | Biodistribution in rats: Intestine (10 min (Table 16)): 3.70 % dose/g | Biodistribution in rats: Kidneys (10 min (Table 16)): 5.40 % dose/g | Biodistribution in rats: Liver (10 min (Table 16)): 0.95 % dose/g | Biodistribution in rats: Lungs (10 min (Table 16)): 2.44 % dose/g | Biodistribution in rats: Muscle (10 min (Table 16)): 0.13 % dose/g | Biodistribution in rats: Spleen (10 min (Table 16)): 1.16 % dose/g | Biodistribution in rats: Submax. glands (10 min (Table 16)): 0.92 % dose/g | Biodistribution in rats: Adrenal glands (10 min post injection): 2.70 % dose/g | Biodistribution in rats: Blood (10 min post injection): 0.04 % dose/g | Biodistribution in rats: Brain (10 min post injection): 0.02 % dose/g | Biodistribution in rats: Heart (10 min post injection): 2.91 % dose/g | Biodistribution in rats: Intestine (10 min post injection): 7.12 % dose/g | Biodistribution in rats: Kidneys (10 min post injection): 5.98 % dose/g | Biodistribution in rats: Liver (10 min post injection): 1.54 % dose/g | Biodistribution in rats: Lungs (10 min post injection): 0.73 % dose/g | Biodistribution in rats: Muscle (10 min post injection): 0.22 % dose/g | Biodistribution in rats: Spleen (10 min post injection): 1.28 % dose/g | Biodistribution in rats: Submax. glands (10 min post injection): 1.40 % dose/g | Biodistribution in rats: Adrenal glands (20 min post injection): 2.70 % dose/g | Biodistribution in rats: Blood (20 min post injection): 0.02 % dose/g | Biodistribution in rats: Brain (20 min post injection): 0.01 % dose/g | Biodistribution in rats: Heart (20 min post injection): 2.86 % dose/g | Biodistribution in rats: Intestine (20 min post injection): 7.44 % dose/g | Biodistribution in rats: Kidneys (20 min post injection): 5.31 % dose/g | Biodistribution in rats: Liver (20 min post injection): 1.09 % dose/g | Biodistribution in rats: Lungs (20 min post injection): 0.50 % dose/g | Biodistribution in rats: Muscle (20 min post injection): 0.20 % dose/g | Biodistribution in rats: Spleen (20 min post injection): 1.20 % dose/g | Biodistribution in rats: Submax. glands (20 min post injection): 1.85 % dose/g | Biodistribution in rats: Adrenal glands (30 min post injection): 2.72 % dose/g | Biodistribution in rats: Blood (30 min post injection): 0.02 % dose/g | Biodistribution in rats: Brain (30 min post injection): 0.01 % dose/g | Biodistribution in rats: Heart (30 min post injection): 2.47 % dose/g | Biodistribution in rats: Intestine (30 min post injection): 8.36 % dose/g | Biodistribution in rats: Kidneys (30 min post injection): 5.28 % dose/g | Biodistribution in rats: Liver (30 min post injection): 1.06 % dose/g | Biodistribution in rats: Lungs (30 min post injection): 0.45 % dose/g | Biodistribution in rats: Muscle (30 min post injection): 0.13 % dose/g | Biodistribution in rats: Spleen (30 min post injection): 0.35 % dose/g | Biodistribution in rats: Submax. glands (30 min post injection): 1.51 % dose/g | Biodistribution in rats: Adrenal glands (60 min post injection): 2.23 % dose/g | Biodistribution in rats: Blood (60 min post injection): 0.02 % dose/g | Biodistribution in rats: Brain (60 min post injection): 0.00 % dose/g | Biodistribution in rats: Heart (60 min post injection): 2.74 % dose/g | Biodistribution in rats: Intestine (60 min post injection): 8.29 % dose/g | Biodistribution in rats: Kidneys (60 min post injection): 5.12 % dose/g | Biodistribution in rats: Liver (60 min post injection): 0.43 % dose/g | Biodistribution in rats: Lungs (60 min post injection): 0.35 % dose/g | Biodistribution in rats: Muscle (60 min post injection): 0.15 % dose/g | Biodistribution in rats: Spleen (60 min post injection): 0.73 % dose/g | Biodistribution in rats: Submax. glands (60 min post injection): 1.79 % dose/g | Biodistribution in rats: Adrenal glands (120 min post injection): 2.98 % dose/g | Biodistribution in rats: Blood (120 min post injection): 0.01 % dose/g | Biodistribution in rats: Brain (120 min post injection): 0.01 % dose/g | Biodistribution in rats: Heart (120 min post injection): 2.44 % dose/g | Biodistribution in rats: Intestine (120 min post injection): 8.00 % dose/g | Biodistribution in rats: Kidneys (120 min post injection): 4.50 % dose/g | Biodistribution in rats: Liver (120 min post injection): 0.23 % dose/g | Biodistribution in rats: Lungs (120 min post injection): 0.22 % dose/g | Biodistribution in rats: Muscle (120 min post injection): 0.19 % dose/g | Biodistribution in rats: Spleen (120 min post injection): 0.41 % dose/g | Biodistribution in rats: Submax. glands (120 min post injection): 1.38 % dose/g
SMILES: CCOCCN1CC[P](CCCOC)(CCCOC)[99Tc+]2(#[N])([S]C(N(CCOCC)C(C)C)=[S]2)[P](CCCOC)(CCCOC)CC1 [[^99mTc(N) (PNP5) (ISOET)]^+]
